Entries after “also recorded” stand apart in the source; their conditions may differ.
Key:
CCL3 = biological target: T1, CCL3 (Homo sapiens, UniProt P10147); assay: CCL3-induced THP-1 cell migration, transwell assay; format: cell-based; settings: HD2 mutant peptides 10 μM, chemokine at EC80
T1 construct: purchased Peprotech
T1 sequence (P10147 24-92): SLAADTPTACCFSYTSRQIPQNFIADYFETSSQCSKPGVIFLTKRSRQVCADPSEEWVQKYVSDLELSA
Protocol: FIG. 2. […] BK1.2 is described in (Darlot, 2020). […] Chemokines used are indicated by the name, followed in parenthesis by the supplier code (P in supplier code indicates Peprotech). […] All experiments were performed at EC80 doses of indicated chemokine. Data are shown as box-whisker plots of three technical and three biological replicates. Statistically significant differences (compared to control, indicated by #), using Dunnett's test with correction for multiple comparisons, are indicated by asterisks: ****=P≤0.0001, ***=P≤0.001, **=P≤0.01, *=P≤0.05.
Briefly, cell migration assays use THP1 cells (human monocyte) and primary human buffy coat white cells (consisting of neutrophil granulocytes, monocytes, and lymphocytes), and activated T-cells. […] Assays are performed in 96-well Boyden chambers, and migrated cells counted and characterized using and ATTUNE Flow Cytometer as described. […]
The J:CXCR1 cell line was generated by transfecting Jurkat cells by electroporation with PvuI-linearized plasmid D1398 and selecting with blasticidin (Sigma-Aldrich, Cat #203350, 5 g/mL). […] Cell counts were determined by Attune NxT Flow Cytometer Plate Reader (ThermoFisher), based on cell size parameters FSC-H/SSC-H. Experiments were performed in 3 technical and 3 biological replicates. […] Statistical significances between control experimental groups was evaluated using Dunnett's test. […]

[1] = system: panel of 24 biotinylated chemokines; assay: Phage-display screen of HD2 NNK saturation mutagenesis library; format: binding, human; settings: HD2 saturation mutants; chemokines on streptavidin beads; UniProt entry names
From the text: FIG. 7. Exemplar results from phage display screens using saturation mutagenesis. A phage-display library was constructed using the HD2 sequence, replacing each residue encoding codon with the degenerate sequence NNK. The 16 degenerate sequences (which also encoded the parental HD2 sequence) were pooled and cloned into display phage. […] Exemplar peptides were selected such that log 2 E for at least one chemokine was greater than 5, and log 2 E for binding to control (CO5, was less than zero). […] The fold enrichment of parental HD2 is also indicated.
A phage-display library was constructed using the HD2 sequence, replacing each residue encoding codon with the degenerate sequence NNK. The 16 degenerate sequences (which also encoded the parental HD2 sequence) were pooled and cloned into display phage. […] Exemplar peptides were selected such that log 2 E for at least one chemokine was greater than 5, and log 2 E for binding to control (CO5, was less than zero). […] The fold enrichment of parental HD2 is also indicated.
A molecular level understanding of binding mechanism is needed for development of peptides as therapeutics and is usually obtained from structural analyses. As HD2 binds many chemokines this becomes a challenging task, and we explored if we could elucidate this using phage display mutagenesis. The role of each residue in HD2 for binding was examined in phage-display. A library of HD2 mutations that had NNK substituted at each residue and performed phage-display selection against a panel of 24 biotinylated chemokines, in parallel, as described in Example 7. This strategy allowed us to evaluate the impact not only of Ala substitutions, but also conservative, hydrophilic and hydrophobic substitutions, and compare with binding of parental HD2 which is also included in the library. Ala substitution removes side-chains beyond the β-carbon and can be used to infer the role of side-chain functional groups without affecting conformational flexibility of the backbone. […] These residues are within the two motifs identified previously. Other notable residues identified were Y8 and P10. We next judged the impact of Ala mutation by calculating the change in log 2 E (Δlog 2 E) between the mutant and parental HD2. A positive value of Δlog 2 E indicates increased binding, and a negative value decreased binding compared to parental HD2. […] As may be seen, the log 2 E for the parental HD2 was ~0 in these analyses indicating lack of enrichment.
Oligonucleotide pools were amplified using primers: oligo_fwd: 5′-[…] and oligo_rev2: 5′-tcgtcaccctcggcgcctcctcoggatcctccacc. Oligonucleotide PCR products were cloned into plasmid prSTOP4Nsi using NEB Builder HiFi Assembly following instructions of the manufacturer. The vector pool was used to transform electrocompetent Invitrogen ElectroMAX™ DH5α-E™ cells. Plasmid DNA was harvested by MaxiPrep (GeneJet Plasmid Maxiprep Kit) and was transformed into SS320 phage display electrocompetent cells (Lucigen), following the manufacturer's protocol, resuspended in 950 μL recovery media for each electroporation, transferred to 50 mL Falcon tubes, 100 μL 1011 CFU/mL M13KO7 helper phage (NEB) added and shaken at 37° C., 220 RPM for 1 h. 1 mL recovery culture was added to 2YT medium containing +50 ug/mL carbenicillin and 25 ug/mL kanamycin, and grown overnight at 37C, 220 rpm. Phage was precipitated from the culture supernatant by adding 22.5 mL of supernatant to 4.5 mL 20% PEG 8000/2.5 M NaCl, incubating on ice for 30 min, and centrifuging at 10,000 RPM, 4° C. for 10 min, and resuspending phage in 1 ml of PBT, followed by centrifugation at 13000 RPM, 4° C., for 10 min. […]

Sequence: EEDDYTAYAPLWCYFT [HD2_W12]
- chemotaxis compared with the parental HD2 peptide (CCL3): significant reduction in chemotaxis
- Chemokines Bound log2E 1-5 [1]: CCL1, CCL15, CCL17, CCL18,; also recorded: CCL19, CCL20, CCL22, CCL25,; also recorded: CCL28, CCL4, X3CL1, SDF1,; also recorded: CXL14
- Chemokines Bound log2E > 5 [1]: CCL3
